Measurements taken from PubChem BioAssay (NCI).
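Five compound concentrations were applied to cells in 96-well plates for 48 hours; endpoints were derived by simple linear interpolation of the resulting dose-response curve. At the GI50, growth is halved. TGI is the concentration that stops growth completely.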

What was measured:
Assay in all cases: NCI tumour cell line growth inhibition, 48 h
MDA-MB-231 breast = tested on: MDA-MB-231 breast
HOP-92 NSCLC = tested on: HOP-92 NSCLC
MDA-MB-435 = tested on: MDA-MB-435
SK-MEL-5 melanoma = tested on: SK-MEL-5 melanoma
NCI-H460 lung = tested on: NCI-H460 lung
COLO 205 colon = tested on: COLO 205 colon
SK-MEL-2 melanoma = tested on: SK-MEL-2 melanoma
SNB-75 CNS = tested on: SNB-75 CNS
U251 CNS = tested on: U251 CNS
SK-MEL-28 melanoma = tested on: SK-MEL-28 melanoma
HL-60(TB) leukemia = tested on: HL-60(TB) leukemia
HT29 colon = tested on: HT29 colon
RPMI-8226 leukemia = tested on: RPMI-8226 leukemia
HS 578T breast = tested on: HS 578T breast
NCI-H23 lung = tested on: NCI-H23 lung
A498 renal = tested on: A498 renal
OVCAR-8 ovarian = tested on: OVCAR-8 ovarian
BT-549 breast = tested on: BT-549 breast
UO-31 renal = tested on: UO-31 renal
CCRF-CEM leukemia = tested on: CCRF-CEM leukemia
DU-145 prostate = tested on: DU-145 prostate
NCI-H522 lung = tested on: NCI-H522 lung
IGROV1 ovarian = tested on: IGROV1 ovarian
MCF7 breast = tested on: MCF7 breast
CAKI-1 renal = tested on: CAKI-1 renal
MOLT-4 leukemia = tested on: MOLT-4 leukemia
NCI-H226 lung = tested on: NCI-H226 lung
NCI/ADR-RES ovarian = tested on: NCI/ADR-RES ovarian
SK-OV-3 ovarian = tested on: SK-OV-3 ovarian
SR leukemia = tested on: SR leukemia
OVCAR-4 ovarian = tested on: OVCAR-4 ovarian
SN12C renal = tested on: SN12C renal
HOP-62 NSCLC = tested on: HOP-62 NSCLC
PC-3 prostate = tested on: PC-3 prostate
HCT-116 colon = tested on: HCT-116 colon
OVCAR-3 ovarian = tested on: OVCAR-3 ovarian
M14 melanoma = tested on: M14 melanoma
RXF 393 renal = tested on: RXF 393 renal
T-47D breast = tested on: T-47D breast
K-562 leukemia = tested on: K-562 leukemia
HCT-15 colon = tested on: HCT-15 colon
KM12 colon = tested on: KM12 colon
SNB-19 CNS = tested on: SNB-19 CNS
OVCAR-5 ovarian = tested on: OVCAR-5 ovarian
UACC-62 melanoma = tested on: UACC-62 melanoma
MALME-3M melanoma = tested on: MALME-3M melanoma
786-0 renal = tested on: 786-0 renal
HCC-2998 colon = tested on: HCC-2998 colon
SF-539 CNS = tested on: SF-539 CNS
SF-295 CNS = tested on: SF-295 CNS
SW-620 colon = tested on: SW-620 colon
SF-268 CNS = tested on: SF-268 CNS
LOX IMVI melanoma = tested on: LOX IMVI melanoma
EKVX NSCLC = tested on: EKVX NSCLC
TK-10 renal = tested on: TK-10 renal
A549 NSCLC = tested on: A549 NSCLC
UACC-257 melanoma = tested on: UACC-257 melanoma
ACHN renal = tested on: ACHN renal

## C[C@H]1S[C@@H](c2ccc(Cl)cc2Cl)N(NC(=O)c2ccncc2)C1=O
MDA-MB-231 breast
  TGI: > 100 µM
HOP-92 NSCLC
  TGI: > 100 µM
MDA-MB-435
  TGI: > 100 µM
SK-MEL-5 melanoma
  TGI: > 100 µM
NCI-H460 lung
  TGI: > 100 µM
COLO 205 colon
  TGI: > 100 µM
SK-MEL-2 melanoma
  TGI: > 100 µM
SNB-75 CNS
  TGI: > 100 µM
U251 CNS
  TGI: > 100 µM
SK-MEL-28 melanoma
  TGI: > 100 µM
HL-60(TB) leukemia
  TGI: > 100 µM
HT29 colon
  TGI: > 100 µM
RPMI-8226 leukemia
  TGI: > 100 µM
HS 578T breast
  TGI: > 100 µM
NCI-H23 lung
  TGI: > 100 µM
A498 renal
  TGI: > 100 µM
OVCAR-8 ovarian
  TGI: > 100 µM
BT-549 breast
  TGI: > 100 µM
UO-31 renal
  TGI: > 100 µM
CCRF-CEM leukemia
  TGI: > 100 µM
DU-145 prostate
  TGI: > 100 µM
NCI-H522 lung
  TGI: > 100 µM
IGROV1 ovarian
  TGI: > 100 µM
MCF7 breast
  TGI: > 100 µM
CAKI-1 renal
  TGI: > 100 µM
MOLT-4 leukemia
  TGI: > 100 µM
NCI-H226 lung
  TGI: > 100 µM
NCI/ADR-RES ovarian
  TGI: > 100 µM
SK-OV-3 ovarian
  TGI: > 100 µM
SR leukemia
  TGI: > 100 µM
OVCAR-4 ovarian
  TGI: > 100 µM
SN12C renal
  TGI: > 100 µM
HOP-62 NSCLC
  TGI: > 100 µM
PC-3 prostate
  TGI: > 100 µM
HCT-116 colon
  TGI: > 100 µM
OVCAR-3 ovarian
  TGI: > 100 µM
M14 melanoma
  TGI: > 100 µM
RXF 393 renal
  TGI: > 100 µM
T-47D breast
  TGI: > 100 µM
K-562 leukemia
  TGI: > 100 µM
HCT-15 colon
  TGI: > 100 µM
KM12 colon
  TGI: > 100 µM
SNB-19 CNS
  TGI: > 100 µM
OVCAR-5 ovarian
  TGI: > 100 µM
UACC-62 melanoma
  TGI: > 100 µM
MALME-3M melanoma
  TGI: > 100 µM

## CN(C)CCC(=O)Nc1ccc(-n2cc(-c3cccc(NC(=S)Nc4cccc(-c5cn(-c6ccc(NC(=O)CCN(C)C)cc6)nn5)c4)c3)nn2)cc1
786-0 renal
  GI50: > 100 µM
  TGI: > 100 µM
MDA-MB-231 breast
  GI50: 27.2 µM
  TGI: 58.5 µM
HOP-92 NSCLC
  GI50: 19.5 µM
  TGI: 53.9 µM
MDA-MB-435
  GI50: 26.7 µM
  TGI: > 100 µM
SK-MEL-5 melanoma
  GI50: 43.9 µM
  TGI: > 100 µM
NCI-H460 lung
  GI50: 26.6 µM
  TGI: 96.6 µM
HCC-2998 colon
  GI50: > 100 µM
  TGI: > 100 µM
COLO 205 colon
  GI50: 14.2 µM
  TGI: 45.7 µM
SK-MEL-2 melanoma
  GI50: 39.5 µM
  TGI: > 100 µM
SNB-75 CNS
  GI50: 25.6 µM
  TGI: 65.6 µM
U251 CNS
  GI50: 21.4 µM
  TGI: 80.8 µM
SK-MEL-28 melanoma
  GI50: 24.5 µM
  TGI: 53.4 µM
HL-60(TB) leukemia
  GI50: > 100 µM
  TGI: > 100 µM
HT29 colon
  GI50: 6.03 µM
  TGI: > 100 µM
SF-539 CNS
  GI50: 28.1 µM
  TGI: 78.2 µM
SF-295 CNS
  GI50: 20.2 µM
  TGI: 49 µM
SW-620 colon
  GI50: 4.26 µM
  TGI: > 100 µM
RPMI-8226 leukemia
  GI50: 38.6 µM
  TGI: > 100 µM
HS 578T breast
  GI50: 33.4 µM
  TGI: > 100 µM
NCI-H23 lung
  GI50: 57.2 µM
  TGI: > 100 µM
SF-268 CNS
  GI50: 24.5 µM
  TGI: 75.6 µM
A498 renal
  GI50: > 100 µM
  TGI: > 100 µM
OVCAR-8 ovarian
  GI50: 42.3 µM
  TGI: > 100 µM
BT-549 breast
  GI50: 22.9 µM
  TGI: 66.4 µM
CCRF-CEM leukemia
  GI50: 21.4 µM
  TGI: 78.3 µM
LOX IMVI melanoma
  GI50: 7.7 µM
  TGI: > 100 µM
DU-145 prostate
  GI50: > 100 µM
  TGI: > 100 µM
NCI-H522 lung
  GI50: 27.3 µM
  TGI: > 100 µM
MCF7 breast
  GI50: 3.25 µM
  TGI: 40.3 µM
CAKI-1 renal
  GI50: > 100 µM
  TGI: > 100 µM
MOLT-4 leukemia
  GI50: 20.7 µM
  TGI: 84.6 µM
NCI-H226 lung
  GI50: 35.3 µM
  TGI: > 100 µM
NCI/ADR-RES ovarian
  GI50: > 100 µM
  TGI: > 100 µM
SK-OV-3 ovarian
  GI50: > 100 µM
  TGI: > 100 µM
SR leukemia
  GI50: 26.2 µM
  TGI: > 100 µM
OVCAR-4 ovarian
  GI50: 35.4 µM
  TGI: > 100 µM
SN12C renal
  GI50: 61.5 µM
  TGI: > 100 µM
EKVX NSCLC
  GI50: 37.2 µM
  TGI: > 100 µM
HOP-62 NSCLC
  GI50: 33.1 µM
  TGI: > 100 µM
PC-3 prostate
  GI50: 85.9 µM
  TGI: > 100 µM
HCT-116 colon
  GI50: 12.7 µM
  TGI: 40.4 µM
OVCAR-3 ovarian
  GI50: 16.4 µM
  TGI: 53.4 µM
TK-10 renal
  GI50: 83.7 µM
  TGI: > 100 µM
M14 melanoma
  GI50: 49.5 µM
  TGI: > 100 µM
RXF 393 renal
  GI50: > 100 µM
  TGI: > 100 µM
T-47D breast
  GI50: 34.1 µM
  TGI: > 100 µM
K-562 leukemia
  GI50: 4.49 µM
  TGI: > 100 µM
HCT-15 colon
  GI50: > 100 µM
  TGI: > 100 µM
A549 NSCLC
  GI50: 27.8 µM
  TGI: > 100 µM
KM12 colon
  GI50: 10.7 µM
  TGI: 34 µM
SNB-19 CNS
  GI50: 49.5 µM
  TGI: > 100 µM
UACC-257 melanoma
  GI50: 26.2 µM
  TGI: 67.4 µM
OVCAR-5 ovarian
  GI50: 20.6 µM
  TGI: 52.8 µM
ACHN renal
  GI50: > 100 µM
  TGI: > 100 µM
UACC-62 melanoma
  GI50: 33.3 µM
  TGI: 98.8 µM

## C=C1CCC[C@@H](C)C(O)[C@@H]2OC(=O)C(=C)[C@@H]2C[C@@H](OC(C)=O)[C@@]2(C)CC[C@@H]1O2 (stereo not given in full)
786-0 renal
  TGI: 20.1 µM
MDA-MB-231 breast
  TGI: 16.3 µM
HOP-92 NSCLC
  TGI: 15 µM
MDA-MB-435
  TGI: 15.1 µM
SK-MEL-5 melanoma
  TGI: 13.7 µM
HCC-2998 colon
  TGI: 14.9 µM
COLO 205 colon
  TGI: 13.4 µM
SK-MEL-2 melanoma
  TGI: 15.8 µM
SNB-75 CNS
  TGI: 10.1 µM
U251 CNS
  TGI: 17.8 µM
SK-MEL-28 melanoma
  TGI: 15.1 µM
HT29 colon
  TGI: 15.3 µM
SF-539 CNS
  TGI: 15.3 µM
SF-295 CNS
  TGI: 38.5 µM
SW-620 colon
  TGI: 16.7 µM
RPMI-8226 leukemia
  TGI: > 50 µM
HS 578T breast
  TGI: 29.4 µM
NCI-H23 lung
  TGI: 15.2 µM
SF-268 CNS
  TGI: 15.7 µM
A498 renal
  TGI: 19.2 µM
OVCAR-8 ovarian
  TGI: 16.4 µM
BT-549 breast
  TGI: 14.4 µM
UO-31 renal
  TGI: 15.3 µM
CCRF-CEM leukemia
  TGI: 6.8 µM
DU-145 prostate
  TGI: 14.3 µM
NCI-H522 lung
  TGI: 4.93 µM
IGROV1 ovarian
  TGI: 15.4 µM
MCF7 breast
  TGI: 11.6 µM
CAKI-1 renal
  TGI: 13.6 µM
MOLT-4 leukemia
  TGI: 15.4 µM
NCI-H226 lung
  TGI: 16 µM
NCI/ADR-RES ovarian
  TGI: 19.3 µM
SK-OV-3 ovarian
  TGI: 40.8 µM
SR leukemia
  TGI: 9.91 µM
OVCAR-4 ovarian
  TGI: 36.7 µM
SN12C renal
  TGI: 16 µM
EKVX NSCLC
  TGI: 15.1 µM
HOP-62 NSCLC
  TGI: 18.7 µM
PC-3 prostate
  TGI: 16.2 µM
HCT-116 colon
  TGI: 13.8 µM
OVCAR-3 ovarian
  TGI: 11.5 µM
TK-10 renal
  TGI: 14.8 µM
M14 melanoma
  TGI: 13.6 µM
RXF 393 renal
  TGI: 12.9 µM
T-47D breast
  TGI: 19.2 µM
K-562 leukemia
  TGI: 12.1 µM
HCT-15 colon
  TGI: 10.6 µM
A549 NSCLC
  TGI: > 50 µM
KM12 colon
  TGI: 14.6 µM
SNB-19 CNS
  TGI: > 50 µM
UACC-257 melanoma
  TGI: 15.2 µM
OVCAR-5 ovarian
  TGI: 16.1 µM
ACHN renal
  TGI: 13.4 µM
UACC-62 melanoma
  TGI: 11.7 µM
